One test has as its target PDE1C (Homo sapiens, UniProt Q14123). Nature of the test: PDE1C assay, run analogously to the PDE9A2 assay. The note with it: ratio PDE1C vs PDE9A2. Type of test: biochemical. An excerpt:
The reaction can be stopped by applying the same inhibitor as the one that is outlined above (1-(2-Chlorophenyl)-6-[(2R)-3,3,3-trifluoro-2-methyl-propyl]-1,5-dihydro-4H-pyrazolo[3,4-d]pyrimidine-4-one).
(§1) IC50 can be calculated with GraphPadPrism or other suitable software setting the positive control as 100 and the negative control as 0. For calculation of IC50, dilutions of the test compounds […] are selected and tested following the aforementioned protocol.
Selectivity is the ratio (IC50 for PDE1C inhibition [nanomolar (nM)])/(IC50 for PDE9A2 inhibition [nanomolar (nM)]).

A further test has as its target T1, human PDE9A2 (Homo sapiens, UniProt O76083).
T1 construct: made in house; host or cells: Sf9 insect cells (crude lysate, not purified)
Nature of the test: PDE9A2 enzymatic activity assay (scintillation proximity assay). The format is biochemical. The note with it: SPA, lysate of SF9 cells expressing human PDE9A2, 20 nanomolar cGMP. How it is done: The total protein amount included in the assay varied upon infection and production efficacy of the SF9 cells and lay in the range of 0.1-100 ng.
The assays were run in 384-well format. The test reagents as well as the enzyme and the substrate were diluted in assay buffer. The assay buffer contained 50 mM Tris, 8.3 mM MgCl2, 1.7 mM EGTA, 0.1% BSA, 0.05% Tween 20; the pH of assay buffer was adjusted to 7.5.
as §1
(In general: SPA uses beads or plates that emit light when radiolabelled molecules are held near them.)

Another test concerns the target human PDE9A (Homo sapiens, UniProt O76083). Particulars: isolated enzyme, concentrations of up to 100 micromolar (μM); cited from earlier work.
Another test has as its target T2, Murine PDE9A (Mus musculus, UniProt O70628).
T2 sequence (O70628 1-534): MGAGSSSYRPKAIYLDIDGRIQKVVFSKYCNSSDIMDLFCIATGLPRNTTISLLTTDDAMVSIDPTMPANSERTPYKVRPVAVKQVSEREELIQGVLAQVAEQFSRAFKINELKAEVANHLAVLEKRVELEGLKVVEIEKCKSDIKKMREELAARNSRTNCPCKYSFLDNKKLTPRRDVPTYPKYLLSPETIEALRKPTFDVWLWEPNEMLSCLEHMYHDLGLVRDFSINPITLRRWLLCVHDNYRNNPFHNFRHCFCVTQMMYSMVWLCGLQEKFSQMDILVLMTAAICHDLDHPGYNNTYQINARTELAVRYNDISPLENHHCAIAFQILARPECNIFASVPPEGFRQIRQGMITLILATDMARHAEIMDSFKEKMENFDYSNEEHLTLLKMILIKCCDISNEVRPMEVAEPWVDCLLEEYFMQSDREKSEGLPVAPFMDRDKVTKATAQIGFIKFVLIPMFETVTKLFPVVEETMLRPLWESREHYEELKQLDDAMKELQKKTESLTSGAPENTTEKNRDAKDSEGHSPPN
Particulars: concentrations below 200 micromolar; cited from earlier work.

human PDE9A, sequence (O76083 whole entry): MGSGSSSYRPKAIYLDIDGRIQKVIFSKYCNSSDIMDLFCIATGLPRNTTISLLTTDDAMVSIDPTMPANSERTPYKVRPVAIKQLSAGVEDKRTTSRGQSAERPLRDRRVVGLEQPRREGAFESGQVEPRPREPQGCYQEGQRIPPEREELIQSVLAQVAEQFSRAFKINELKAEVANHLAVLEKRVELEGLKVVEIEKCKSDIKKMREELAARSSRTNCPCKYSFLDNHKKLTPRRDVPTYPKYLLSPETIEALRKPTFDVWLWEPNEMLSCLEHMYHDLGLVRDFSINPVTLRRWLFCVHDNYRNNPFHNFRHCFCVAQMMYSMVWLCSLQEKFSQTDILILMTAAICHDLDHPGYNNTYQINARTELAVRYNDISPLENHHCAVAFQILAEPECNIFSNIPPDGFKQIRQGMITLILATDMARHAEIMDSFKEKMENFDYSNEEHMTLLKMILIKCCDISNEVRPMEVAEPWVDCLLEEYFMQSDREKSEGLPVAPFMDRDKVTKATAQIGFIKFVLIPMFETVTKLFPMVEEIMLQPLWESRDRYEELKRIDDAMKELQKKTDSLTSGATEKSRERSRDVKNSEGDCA
T1 sequence (O76083 1-533 isoform O76083-2): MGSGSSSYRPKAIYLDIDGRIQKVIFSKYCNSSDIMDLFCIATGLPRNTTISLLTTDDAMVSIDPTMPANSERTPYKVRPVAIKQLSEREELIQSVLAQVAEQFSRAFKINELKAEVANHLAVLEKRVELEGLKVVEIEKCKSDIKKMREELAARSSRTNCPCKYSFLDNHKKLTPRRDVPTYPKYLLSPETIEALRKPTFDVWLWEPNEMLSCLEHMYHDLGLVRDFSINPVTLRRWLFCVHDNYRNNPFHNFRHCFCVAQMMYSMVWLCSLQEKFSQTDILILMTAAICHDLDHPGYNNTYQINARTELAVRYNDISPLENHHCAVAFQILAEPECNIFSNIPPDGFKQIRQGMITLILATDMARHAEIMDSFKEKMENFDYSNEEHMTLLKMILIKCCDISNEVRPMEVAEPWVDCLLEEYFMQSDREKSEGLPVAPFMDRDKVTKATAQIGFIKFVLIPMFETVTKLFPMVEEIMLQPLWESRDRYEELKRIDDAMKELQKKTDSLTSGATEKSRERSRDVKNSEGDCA

A word on the IC50: it is the concentration at which inhibition is half-maximal. High values mean a need for much substance, low ones inhibition by little substance. Consider `O=c1[nH]c([C@@H]2CC[C@H]2c2cn3ccccc3n2)nc2c1cnn2C1CCC(F)(F)CC1` (racemic) [Example 4], for which the “Selectivity (IC50 for PDE1C inhibition / IC50 for PDE9A2 inhibition)” value on PDE1C stood at 123. This compound yielded an IC50 at human PDE9A2 of 6 nM.

For `O=c1[nH]c([C@@H]2CC[C@H]2c2cn3ccc(Cl)cc3n2)nc2c1cnn2C1CCC(F)(F)CC1` (racemic) [Example 5], on PDE1C, the “Selectivity (IC50 for PDE1C inhibition / IC50 for PDE9A2 inhibition)” value was 40. Besides, on human PDE9A2, 10 nM corresponded to half-maximal inhibition (IC50).

For `CC(C)Cn1c(=O)n(C)c(=O)c2[nH]cnc21` [IBMX], the “inhibition of human PDE9A” value on human PDE9A was “no inhibition”. The “inhibition of murine PDE9A” value on Murine PDE9A is given as “not inhibited”.

`CC(=O)Nc1ccc(-c2c[nH]c(=O)cn2)cc1` [SKF94120]: the “inhibition of human PDE9A” value on human PDE9A was “no inhibition”.

Turning to `OCCN(CCO)c1nc(N2CCCCC2)c2nc(N(CCO)CCO)nc(N3CCCCC3)c2n1` [dipyridamole], the “inhibition of human PDE9A” value at human PDE9A is listed as “no inhibition”.

For `COc1ccc(C2CNC(=O)C2)cc1OC1CCCC1` (stereo not shown) [rolipram], the “inhibition of human PDE9A” value on human PDE9A is recorded as “no inhibition”.

Take `CCOC(=O)C1=C[C@]2(CC)CCCN3CCc4c(n1c1ccccc41)[C@@H]32` [vinpocetine]: the “inhibition of human PDE9A” value on human PDE9A was “no inhibition”.

The values are drawn from patent US8809345B2, “6-cycloalkyl-pyrazolopyrimidinones for the treatment of CNS disorders” (Boehringer Ingelheim International GmbH, priority 2011, dated 2014).
